Experimental data: patent US8076338B2, “Kinase modulators and methods of use” (Exelixis, Inc., priority 2004, dated 2011)
pIC50: −log10 of the molar value. Like-named read-outs stand apart in the source and are kept apart here.

Assays:
p70S6K = p70S6K (Homo sapiens, UniProt P23443); assay: Luciferase-coupled chemiluminescence kinase assay (ATP consumption); format: biochemical
Procedure, shortened: (§1)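 Enzyme at 2.5-5 nM was preincubated 30 min at room temperature with compound in Tris pH 7.5, MgCl2, TX-100, DTT, then reacted with ATP for 3 h at ambient temperature. Remaining ATP was quantified by luciferase-luciferin chemiluminescence, with consumption kept at 25-60%; […].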

AktK = AktK (Homo sapiens, UniProt P31749); assay: as above; format: biochemical; conditions: read-out: AKT-1 IC50
AktK, sequence (P31749 whole entry): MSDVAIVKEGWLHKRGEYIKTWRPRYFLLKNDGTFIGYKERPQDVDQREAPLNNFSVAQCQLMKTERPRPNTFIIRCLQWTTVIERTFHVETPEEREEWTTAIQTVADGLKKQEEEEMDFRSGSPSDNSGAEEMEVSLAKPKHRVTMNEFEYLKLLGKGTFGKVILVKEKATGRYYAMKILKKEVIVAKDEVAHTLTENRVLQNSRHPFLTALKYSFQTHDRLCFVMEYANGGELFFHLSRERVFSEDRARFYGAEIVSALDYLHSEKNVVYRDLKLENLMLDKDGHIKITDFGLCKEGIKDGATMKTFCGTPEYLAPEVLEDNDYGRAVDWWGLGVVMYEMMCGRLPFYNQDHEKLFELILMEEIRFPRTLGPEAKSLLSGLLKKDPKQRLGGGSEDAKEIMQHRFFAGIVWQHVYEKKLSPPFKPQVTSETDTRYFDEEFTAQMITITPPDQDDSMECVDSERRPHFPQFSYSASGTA
Procedure, shortened: as §1

p70S6K, sequence (P23443 whole entry): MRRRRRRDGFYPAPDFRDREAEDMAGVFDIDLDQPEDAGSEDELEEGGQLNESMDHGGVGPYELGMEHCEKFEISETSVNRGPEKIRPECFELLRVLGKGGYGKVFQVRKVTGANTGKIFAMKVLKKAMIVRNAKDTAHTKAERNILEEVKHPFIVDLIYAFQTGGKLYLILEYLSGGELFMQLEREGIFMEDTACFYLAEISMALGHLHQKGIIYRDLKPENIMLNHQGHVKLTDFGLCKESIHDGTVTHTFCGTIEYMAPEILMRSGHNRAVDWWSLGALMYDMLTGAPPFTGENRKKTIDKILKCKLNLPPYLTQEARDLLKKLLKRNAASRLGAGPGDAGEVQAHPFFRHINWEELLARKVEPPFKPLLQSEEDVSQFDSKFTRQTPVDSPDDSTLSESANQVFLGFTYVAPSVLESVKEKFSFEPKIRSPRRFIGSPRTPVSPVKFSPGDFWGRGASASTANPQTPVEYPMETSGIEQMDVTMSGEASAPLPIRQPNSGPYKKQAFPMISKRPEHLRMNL

Structure (SMILES) | pIC50 (p70S6K) | pIC50 (AktK) | pIC50 (p70S6K; Table 1, class symbols per key) | pIC50 (AktK; Table 1, class symbols per key)
Cc1c(NCCN2CCCC2)cc(-c2nc(-c3ccccc3)no2)cc1N1CCN(c2ncnc3[nH]nc(Br)c23)CC1 [Entry 241, 3-[4-(3-bromo-1H-pyrazolo[3,4-d]pyrimidin-4-yl)piperazin-1-yl]-2-methyl-5-(3-phenyl-1,2,4-oxadiazol-5-yl)-N-(2-pyrrolidin-1-ylethyl)aniline] |  |  | > 7.00 | 5.00 to 6.00
CCN(CC)CCCOc1cc(Cl)cc(N2CCN(c3ncnc4[nH]nc(Br)c34)CC2)c1C [Entry 83, 3-({3-[4-(3-bromo-1H-pyrazolo[3,4-d]pyrimidin-4-yl)piperazin-1-yl]-5-chloro-2-methylphenyl}oxy)-N,N-diethylpropan-1-amine] |  |  | > 7.00 | > 7.00
CCc1n[nH]c2ncnc(N3CCN(c4cc(Cl)cc(CCCN5CCN(C)CC5)c4C)CC3)c12 [Entry 62, 4-(4-{5-chloro-2-methyl-3-[3-(4-methylpiperazin-1-yl)propyl]phenyl}piperazin-1-yl)-3-ethyl-1H-pyrazolo[3,4-d]pyrimidine] |  |  | > 7.00 | 6.00 to 7.00
Cc1c(NCCN2CCCC2)cc(C#CC(C)(C)C)cc1N1CCN(c2ncnc3[nH]nc(Br)c23)CC1 [Entry 238, 3-[4-(3-bromo-1H-pyrazolo[3,4-d]pyrimidin-4-yl)piperazin-1-yl]-5-(3,3-dimethylbut-1-yn-1-yl)-2-methyl-N-(2-pyrrolidin-1-ylethyl)aniline] |  |  | > 7.00 | > 7.00

Next, values leading:

pIC50 (p70S6K) | pIC50 (AktK) | pIC50 (p70S6K; Table 1, class symbols per key) | pIC50 (AktK; Table 1, class symbols per key) | Structure (SMILES)
5.00 to 6.00 | ≤ 5.00 |  |  | Fc1ccccc1N1CCN(c2ncnc3[nH]cnc23)CC1 [Entry 300, 6-[4-(2-fluorophenyl)piperazin-1-yl]-9H-purine]
 |  | 6.00 to 7.00 | ≤ 5.00 | FC(F)(F)c1ccnc(N2CCN(c3ncnc4[nH]nc(Br)c34)CC2)c1 [Entry 117, 3-bromo-4-{4-[4-(trifluoromethyl)pyridin-2-yl]piperazin-1-yl}-1H-pyrazolo[3,4-d]pyrimidine]
 |  | > 7.00 | > 7.00 | Cc1c(OCCCN2CCN(C)CC2)cc(Cl)cc1N1CCN(c2ncnc3[nH]nc(Br)c23)CC1 [Entry 85, 3-bromo-4-[4-(5-chloro-2-methyl-3-{[3-(4-methylpiperazin-1-yl)propyl]oxy}phenyl)piperazin-1-yl]-1H-pyrazolo[3,4-d]pyrimidine]
 |  | > 7.00 | ≤ 5.00 | Fc1ccc(F)c(N2CCN(c3ncnc4[nH]nc(Br)c34)CC2)c1 [Entry 131, 3-bromo-4-[4-(2,5-difluorophenyl)piperazin-1-yl]-1H-pyrazolo[3,4-d]pyrimidine]
